Drawing on US20250179027A1, “CYCLOALKYL OR HETEROCYCLYL SUBSTITUTED HETEROARYL COMPOUND, AND COMPOSITION AND USE THEREOF” (Shenzhen TargetRx, Inc., priority 2022, published 2025), this text covers IC50 for four compounds.

For assay [1], the target named is T1, BTK kinase (Homo sapiens, UniProt Q06187).
T1 construct: purchased Invitrogen PV3587
Kind of assay: HTRF kinase activity inhibition assay, BTK. The format is biochemical. The following applies: HTRF TK kit. The source says:
(§1) In this assay, the HTRF TK Kit (Catalog No. 62TKOPEC) provided by Cisbio was used to detect the inhibitory activity of compounds on BTK kinase and BTK C481S kinase and the selectivity of compounds relative to EGFR, ITK and TEC kinases.
(§2) Reagents and consumables: BTK kinase (Invitrogen, Catalog No. PV3587), BTK C481S (Carna, Product No. 08-547), ITK (Carna, Product No. 08-181), EGFR (Carna, Product No. 08-115), TEC (Carna, Product No. 08-182), HTRF-TK kit (Cisbio, Product No. 62TKOPEC), MgCl2 (Sigma, Product No. M1028), MnCl2 (Sigma, Product No. M1787), DTT (Sigma, Product No. D0632), ATP (Sigma, Product No. A7699-1 g), DMSO (Sigma, Product No. D2650), 384-well plate (PE, Product No. 6008280).
(§3) The entire operation steps were carried out on ice, and the total reaction volume was 10 μL. The compound (4 μL), substrate and ATP (4 μL), kinase (2 μL) were added in sequence to a 384-well plate, and shaked for 30 seconds. After an appropriate time at room temperature, the detection reagent was added. After 1 hour at room temperature, the plate was detected with a microplate reader. The specific steps were as follows: • a) 1× kinase buffer solution required for kinase detection was calculated according to the amount of the detection compound, and prepared as needed; • b) compounds with 2.5×working concentration were prepared, the 100 times gradient concentration solution of compounds was diluted by 4 μL to the desired concentration, mixed well, and added to each well at 4 μL per well; • c) 5×working concentration of substrate and ATP were prepared, mixed in a ratio of 1:1 before adding to a 384-well plate, and added to each well at 4 μL per well; • d) 5×working concentration of kinase was prepared, and 2 μL was added to each well; • e) the plate was shaked on a microplate oscillator for 30 seconds, sealed with a sealing membrane, and reacted at room temperature for an appropriate time; • f) 4×working concentrations of streptavidin XL-665 and TK antibody-cryptate compound were prepared, mixed in a ratio of 1:1 before adding to a 384-well plate, and added to each well at 10 μL per well; • g) the plate was read after reacting at room temperature for 1 hour; • h) the wells with only substrate, ATP and 1% DMSO added but no kinase were blank control wells, and the wells with only substrate, ATP, 1% DMSO and kinase were positive control wells.
(§4) Readings: The values of 620 nm (cryptate) and 665 nm (XL665) were read with a BioTek Synerg Neo2 microplate reader, the ratio of 665/620 per well was calculated, and the data were exported. Data analysis: IC50 was calculated using GraphPad Prism 7.0 software. The following nonlinear fitting formula was used to obtain the IC50 (half inhibitory concentration) of compounds:
(§5) [formula] • X: Compound concentration log value • Y: Inhibition rate (% inhibition)
(§6) The kinase inhibition rate (% inhibition rate) was calculated as: […]
(In general: Time-resolved FRET reads energy transfer from a long-lived donor to a nearby acceptor.)

Assay [2] deals with T2, EGFR (Homo sapiens, UniProt P00533).
T2 construct: purchased Carna 08-115
Kind of assay: HTRF kinase activity inhibition assay, EGFR. The following applies: HTRF TK kit. The format is biochemical.
Source text: as §1, §2, §3, §4, §5, §6

Assay [3] has as its target T3, ITK (Homo sapiens, UniProt Q08881).
T3 construct: purchased Carna 08-181
T3 sequence (Q08881 1-620): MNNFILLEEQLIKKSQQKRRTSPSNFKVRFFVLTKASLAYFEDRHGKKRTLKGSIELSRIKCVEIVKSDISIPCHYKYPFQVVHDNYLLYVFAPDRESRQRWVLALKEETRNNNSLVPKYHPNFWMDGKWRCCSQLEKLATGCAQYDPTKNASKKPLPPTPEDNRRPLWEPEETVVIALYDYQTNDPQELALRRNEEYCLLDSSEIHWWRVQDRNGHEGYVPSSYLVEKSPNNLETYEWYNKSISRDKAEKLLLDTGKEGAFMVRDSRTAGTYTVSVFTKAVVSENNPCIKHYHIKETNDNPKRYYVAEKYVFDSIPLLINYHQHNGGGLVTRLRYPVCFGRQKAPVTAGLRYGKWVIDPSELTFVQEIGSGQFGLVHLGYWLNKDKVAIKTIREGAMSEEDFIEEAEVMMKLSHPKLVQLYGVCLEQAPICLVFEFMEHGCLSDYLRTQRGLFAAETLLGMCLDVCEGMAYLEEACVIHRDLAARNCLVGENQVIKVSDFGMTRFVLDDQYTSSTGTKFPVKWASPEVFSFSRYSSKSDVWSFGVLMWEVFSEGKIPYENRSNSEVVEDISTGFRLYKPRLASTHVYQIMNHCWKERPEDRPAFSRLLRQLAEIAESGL
Kind of assay: HTRF kinase activity inhibition assay, ITK. The format is biochemical. The following applies: HTRF TK kit.
Source text: as §1, §2, §3, §4, §5, §6

In assay [4] the target is T4, TEC (Homo sapiens, UniProt P42680).
T4 construct: purchased Carna 08-182
T4 sequence (P42680 1-631): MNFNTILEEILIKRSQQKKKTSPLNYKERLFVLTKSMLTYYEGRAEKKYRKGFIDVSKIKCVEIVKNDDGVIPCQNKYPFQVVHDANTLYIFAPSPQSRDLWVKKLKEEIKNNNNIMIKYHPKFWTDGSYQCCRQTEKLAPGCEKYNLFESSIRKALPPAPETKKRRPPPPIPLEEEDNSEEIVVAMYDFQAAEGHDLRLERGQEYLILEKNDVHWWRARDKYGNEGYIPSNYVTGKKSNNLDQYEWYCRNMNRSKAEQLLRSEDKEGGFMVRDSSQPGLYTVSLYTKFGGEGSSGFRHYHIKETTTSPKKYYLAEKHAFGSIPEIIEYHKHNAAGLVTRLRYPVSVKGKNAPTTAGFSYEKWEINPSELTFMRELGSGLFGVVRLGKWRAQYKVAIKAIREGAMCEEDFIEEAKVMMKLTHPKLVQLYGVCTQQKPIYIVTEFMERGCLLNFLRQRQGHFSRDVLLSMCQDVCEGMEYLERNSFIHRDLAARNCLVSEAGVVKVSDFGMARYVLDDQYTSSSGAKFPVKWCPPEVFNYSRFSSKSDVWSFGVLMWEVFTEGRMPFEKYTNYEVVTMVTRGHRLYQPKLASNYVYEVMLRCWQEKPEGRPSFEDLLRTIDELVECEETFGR
Kind of assay: HTRF kinase activity inhibition assay, TEC. The format is biochemical. The following applies: HTRF TK kit.
Source text: as §1, §2, §3, §4, §5, §6

In assay [5] the target is T5, phosphorylated BTK Y223 in NIH/3T3 BTK WT cells (Homo sapiens, UniProt Q06187).
T5 construct: expressed in transfected cells; host or cells: NIH/3T3 (mouse fibroblasts) engineered to express BTK WT
Kind of assay: Phosphor-BTK(Y223) assay, NIH/3T3 BTK WT cells. The format is cell-based. The following applies: phosphorylated BTK Y223, NIH/3T3 BTK WT cells; read-out: NIH/3T3 BTK-WT pBTK IC50. As to the method: The purpose of this assay is to simply, quickly and directly detect the endogenous level of BTK in cells. The specific assay steps are as follows: Day 1: NIH/3T3 BTK WT cells (7.5 k/well) and NIH/3T3 BTK C481S cells (10 k/well) were plated in 96-well plates, respectively, and cultured overnight at 37° C. and 5% CO2.
• 1. A 3-fold final concentration gradient dilution of the compound was prepared, and 50 μL was added to 100 μL of cell culture; 0.5% DMSO was used as a positive control for cell growth. • 2. The plate was incubated at 37° C., 5% CO2 for 0.5 h. • 3. Na3VO4 with a final concentration of 1 mM was added, and incubated at 37° C. and 5% CO2 for 2 hours. • 4. During the incubation, the following reagents were prepared: 1× added lysis buffer: 3 vol ddH2O+1 vol 4× lysis buffer+100× blocking reagent. p-BTK (Y223) cryptate-antibody and p-BTK (Y223) d2-antibody working solutions: 1 volume of each cryopreserved antibody (stored at −20° C.) was added to 19 times volumes of assay buffer (stored at 4° C.). • 5. After the incubation, the medium was removed and 50 μL of 1× added lysis buffer was added; The mixture was centrifuged at 500 rpm for 30 min at room temperature. • 6. The lysate was mixed well and 16 μL was transferred to a 384-well plate; 1× added lysis buffer was used as a blank control. • 7. 4 μL of pre-mixed working solutions of the two antibodies (cryptate Ab:d2 Ab=1:1) were added and the plate was sealed. • 8. The plate was incubated overnight at room temperature.
Biotek cytation3.0 microplate reader was used to read the plate at 665 nm and 620 nm, and the ratio of 665/620 nm per well was calculated.
IC50 was calculated using GraphPad Prism 7.0 software.
The following nonlinear fitting formula was used to obtain the phosphorylated BTK Y223 IC50 (half phosphorylation inhibitory concentration) of the compounds:
as §5
The formula for calculating cell phosphorylation inhibition rate (% inhibition rate) was: […]

T5 sequence (Q06187 whole entry): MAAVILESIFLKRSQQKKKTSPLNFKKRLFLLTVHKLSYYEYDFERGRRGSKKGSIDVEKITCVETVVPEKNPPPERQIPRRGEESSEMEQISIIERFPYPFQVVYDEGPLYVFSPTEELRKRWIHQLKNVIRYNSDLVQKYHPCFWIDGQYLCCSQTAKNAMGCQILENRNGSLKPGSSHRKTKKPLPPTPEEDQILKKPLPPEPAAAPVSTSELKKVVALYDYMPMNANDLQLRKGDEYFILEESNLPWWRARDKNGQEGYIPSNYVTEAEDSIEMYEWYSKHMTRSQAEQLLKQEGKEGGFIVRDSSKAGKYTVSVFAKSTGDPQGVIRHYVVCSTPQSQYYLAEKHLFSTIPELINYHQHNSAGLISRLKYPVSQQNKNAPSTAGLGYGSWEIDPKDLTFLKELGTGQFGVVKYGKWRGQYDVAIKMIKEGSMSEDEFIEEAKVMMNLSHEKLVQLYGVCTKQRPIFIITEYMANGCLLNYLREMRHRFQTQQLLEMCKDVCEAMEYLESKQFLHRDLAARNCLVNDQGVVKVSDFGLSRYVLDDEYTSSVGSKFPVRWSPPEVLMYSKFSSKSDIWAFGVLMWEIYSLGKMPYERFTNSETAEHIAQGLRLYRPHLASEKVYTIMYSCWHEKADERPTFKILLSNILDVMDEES
T1 sequence (Q06187 whole entry): as above
T2 sequence (P00533 669-1210 limits assumed): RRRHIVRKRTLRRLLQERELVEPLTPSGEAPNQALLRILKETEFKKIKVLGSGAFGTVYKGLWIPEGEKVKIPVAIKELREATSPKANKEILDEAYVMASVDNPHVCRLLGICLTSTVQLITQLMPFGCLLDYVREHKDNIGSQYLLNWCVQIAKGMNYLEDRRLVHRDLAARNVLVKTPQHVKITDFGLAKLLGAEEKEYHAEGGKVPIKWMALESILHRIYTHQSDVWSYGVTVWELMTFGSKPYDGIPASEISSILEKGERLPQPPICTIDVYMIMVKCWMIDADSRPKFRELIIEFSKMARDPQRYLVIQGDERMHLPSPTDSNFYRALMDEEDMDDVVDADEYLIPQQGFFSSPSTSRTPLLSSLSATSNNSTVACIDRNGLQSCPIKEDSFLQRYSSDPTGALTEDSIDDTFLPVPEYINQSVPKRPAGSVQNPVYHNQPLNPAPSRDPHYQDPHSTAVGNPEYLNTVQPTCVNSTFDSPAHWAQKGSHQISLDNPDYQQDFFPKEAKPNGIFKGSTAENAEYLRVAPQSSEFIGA

For `COc1ccc(F)cc1C(=O)NCc1ccc(-c2nn(C3CCC(O)C3)c3ncnc(N)c23)cc1` (single isomer, unassigned) [Example 33, N-(4-(4-amino-1-(3-hydroxycyclopentanyl)-1H-pyrazolo[3,4-d]pyrimidin-3-yl)benzyl)-5-fluoro-2-methoxybenzamide], the IC50 was ≤ 0.01 µM in assay [1]; 0.05 to 0.1 µM in assay [2]; > 10 µM in assay [3]; 0.1 to 1 µM in assay [4]; ≤ 0.025 µM in assay [5].
Regarding `COc1ccc(F)cc1C(=O)NCc1ccc(-c2nn(C3CCC(O)C3)c3ncnc(N)c23)cc1` (single isomer, unassigned) [Example 34, N-(4-(4-amino-1-(3-hydroxycyclopentanyl)-1H-pyrazolo[3,4-d]pyrimidin-3-yl)benzyl)-5-fluoro-2-methoxybenzamide], the IC50 in assay [1] is ≤ 0.01 µM; in assay [2], 0.05 to 0.1 µM; in assay [3], > 10 µM; in assay [4], 0.1 to 1 µM; in assay [5], ≤ 0.025 µM.
In the case of `COc1ccc(F)cc1C(=O)NCc1ccc(-c2nn(C3CCC(O)C3)c3ncnc(N)c23)cc1` (single isomer, unassigned) [Example 35, N-(4-(4-amino-1-(3-hydroxycyclopentanyl)-1H-pyrazolo[3,4-d]pyrimidin-3-yl)benzyl)-5-fluoro-2-methoxybenzamide], the IC50 in assay [1] was ≤ 0.01 µM; in assay [2], 0.05 to 0.1 µM; in assay [3] it was > 10 µM; in assay [4], 0.1 to 1 µM; in assay [5], ≤ 0.025 µM.
Take `COc1ccc(F)cc1C(=O)NCc1ccc(-c2nn(C3CCC(O)C3)c3ncnc(N)c23)cc1` (single isomer, unassigned) [Example 36, N-(4-(4-amino-1-(3-hydroxycyclopentanyl)-1H-pyrazolo[3,4-d]pyrimidin-3-yl)benzyl)-5-fluoro-2-methoxybenzamide]: the IC50 was ≤ 0.01 µM in assay [1]; 1 to 10 µM in assay [2]; > 10 µM in assay [3]; 0.1 to 1 µM in assay [4]; ≤ 0.025 µM in assay [5].
